Measured values: ChEMBL document CHEMBL4680122, “Design, synthesis and biological evaluation of new Axl kinase inhibitors containing 1,3,4-oxadiazole acetamide moiety as novel linker” (Eur J Med Chem, 2020)
pIC50: −log10 of the molar value.

Key:
[1] = tested on: HT-29; test: Antiproliferative activity against human HT-29 cells measured after 72 hrs by MTT assay; settings: HT-29, 72 h
[2] = tested on: A549; test: cells; settings: Homo sapiens, A549, 72 h
Description: Antiproliferative activity against human A549 cells measured after 72 hrs by MTT assay

[3] = tested on: PC-3; test: cells; settings: Homo sapiens, PC-3, 72 h
Description: Antiproliferative activity against human PC-3 cells measured after 72 hrs by MTT assay

[4] = tested on: MCF7; test: Antiproliferative activity against human MCF7 cells measured after 72 hrs by MTT assay; type: functional, cell-based; settings: MCF7, 72 h
[5] = target: Tyrosine-protein kinase receptor UFO (Homo sapiens) (UniProt P30530); settings: dose 100.0 nM, time 1.0 hrs
Tyrosine-protein kinase receptor UFO (Homo sapiens), sequence (P30530 whole entry): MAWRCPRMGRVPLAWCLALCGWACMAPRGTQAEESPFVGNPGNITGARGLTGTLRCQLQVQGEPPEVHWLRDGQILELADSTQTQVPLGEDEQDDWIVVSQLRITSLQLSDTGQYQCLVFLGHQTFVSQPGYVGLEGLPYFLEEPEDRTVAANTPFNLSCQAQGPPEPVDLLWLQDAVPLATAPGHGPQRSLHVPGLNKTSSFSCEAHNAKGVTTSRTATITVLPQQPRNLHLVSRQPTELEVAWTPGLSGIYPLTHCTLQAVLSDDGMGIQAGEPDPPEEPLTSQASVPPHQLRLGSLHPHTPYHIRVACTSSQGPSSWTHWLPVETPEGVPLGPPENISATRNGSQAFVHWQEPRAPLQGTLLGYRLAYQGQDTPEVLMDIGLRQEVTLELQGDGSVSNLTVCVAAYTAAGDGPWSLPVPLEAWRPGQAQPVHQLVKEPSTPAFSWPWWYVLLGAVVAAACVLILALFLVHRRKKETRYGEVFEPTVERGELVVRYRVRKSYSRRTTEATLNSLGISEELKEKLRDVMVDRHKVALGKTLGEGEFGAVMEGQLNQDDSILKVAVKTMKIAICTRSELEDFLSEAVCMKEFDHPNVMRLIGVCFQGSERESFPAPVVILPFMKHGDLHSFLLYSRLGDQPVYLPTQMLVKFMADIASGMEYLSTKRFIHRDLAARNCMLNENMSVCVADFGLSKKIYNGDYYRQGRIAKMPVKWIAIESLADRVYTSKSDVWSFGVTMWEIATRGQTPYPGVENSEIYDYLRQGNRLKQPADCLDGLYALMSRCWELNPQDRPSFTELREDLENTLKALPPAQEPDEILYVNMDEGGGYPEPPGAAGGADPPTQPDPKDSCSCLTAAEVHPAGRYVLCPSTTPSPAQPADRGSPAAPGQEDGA

Molecule `COc1cc2c(Oc3ccc(NC(=O)Cc4nnc(-c5ccc(Cl)cc5)o4)cc3F)ccnc2cc1OCCCN1CCC(C)CC1` has a pIC50 [1] of 5.61, a pIC50 [2] of 6.20 and a pIC50 [3] of 6.44.
`COc1cc2nccc(Oc3ccc(NC(=O)c4nnc(-c5ccc(F)cc5)o4)cc3)c2cc1OC` showed a pIC50 [1] of 4.28, a pIC50 [2] of 5.29 and a pIC50 [3] of under 4.00.
With `COc1cc2c(Oc3ccc(NC(=O)C(C)(C)c4nnc(-c5ccc(F)cc5)o4)cc3F)ccnc2cc1OCCCN1CCOCC1` the pIC50 [4] was 5.80, the pIC50 [1] was 5.61 and the pIC50 [2] was 6.56. It also gave a pIC50 [3] of 5.75.
Work on `COc1cc2c(Oc3ccc(NC(=O)C(C)c4nnc(-c5ccc(F)cc5)o4)cc3F)ccnc2cc1OCCCN1CCCC1` (centres undefined) yielded a pIC50 [4] of 5.57, a pIC50 [1] of 5.90 and a pIC50 [2] of 7.12. For the same molecule, the pIC50 [3] was 5.97.
Work on `CCC(C(=O)Nc1ccc(Oc2ccnc3cc(OCCCN4CCN(C)CC4)c(OC)cc23)c(F)c1)c1nnc(-c2ccc(F)cc2)o1` (centres undefined) yielded a pIC50 [4] of 5.65, a pIC50 [1] of 5.81 and a pIC50 [2] of 7.42. The pIC50 [3] was 6.01.
For `COc1cc2c(Oc3ccc(NC(=O)C(C)c4nnc(-c5ccc(F)cc5)o4)cc3F)ccnc2cc1OCCCN1CCN(C)CC1` (centres undefined), the pIC50 [4] was 5.79, the pIC50 [1] was 5.71 and the pIC50 [2] was 7.12. For the same molecule, the pIC50 [3] was 5.77.
For `COc1cc2c(Oc3ccc(NC(=O)c4nnc(-c5ccc(F)cc5)o4)cc3)ccnc2cc1OCCCN1CCC(C)CC1`, the pIC50 [1] was 5.10, the pIC50 [2] was 5.56 and the pIC50 [3] was 5.42.
In the case of `COc1cc2c(Oc3ccc(NC(=O)C4(c5nnc(-c6ccc(F)cc6)o5)CC4)cc3F)ccnc2cc1OCCCN1CCOCC1`, the pIC50 [4] was under 4.00, the pIC50 [1] was 5.03 and the pIC50 [2] was 5.78. It also gave a pIC50 [3] of 4.89.
In the case of `CCC(C(=O)Nc1ccc(Oc2ccnc3cc(OCCCN4CCCC4)c(OC)cc23)c(F)c1)c1nnc(-c2ccc(F)cc2)o1` (centres undefined), the pIC50 [4] was 5.98, the pIC50 [1] was 6.24 and the pIC50 [2] was 7.11. The pIC50 [3] was 5.85.
With `COc1cc2c(Oc3ccc(NC(=O)C(C)(C)c4nnc(-c5ccc(F)cc5)o4)cc3F)ccnc2cc1OCCCN1CCC(C)CC1` the pIC50 [4] was 6.43, the pIC50 [1] was 6.19 and the pIC50 [2] was 6.38. For the same molecule, the pIC50 [3] was 5.83.
With `COc1cc2c(Oc3ccc(NC(=O)C4(C(=O)Nc5ccc(F)cc5)CC4)cc3F)ccnc2cc1OCCCN1CCOCC1` [FORETINIB] the pIC50 [4] was 5.70, the pIC50 [2] was 6.68 and the inhibition [5] was 88%. It also gave a pIC50 [3] of 6.09.
Work on `COc1cc2c(Oc3ccc(NC(=O)c4nc(-c5ccc(F)cc5)no4)cc3)ccnc2cc1OCCCN1CCC(C)CC1` yielded a pIC50 [1] of 5.20, a pIC50 [2] of 6.06 and a pIC50 [3] of 5.98.
In the case of `COc1cc2nccc(Oc3ccc(NC(=O)C4(C(=O)Nc5ccc(F)cc5)CC4)cc3)c2cc1OC` [CABOZANTINIB], the pIC50 [1] was 5.34, the pIC50 [2] was 5.43 and the pIC50 [3] was 5.08.
Molecule `COc1cc2c(Oc3ccc(NC(=O)Cc4nnc(-c5ccccc5)o4)cc3F)ccnc2cc1OCCCN1CCC(C)CC1` has a pIC50 [1] of 5.11, a pIC50 [2] of 6.04 and a pIC50 [3] of 5.33.
For `COc1cc2c(Oc3ccc(NC(=O)Cc4nnc(-c5ccc(F)cc5)o4)cc3F)ccnc2cc1OCCCN1CCC(C)CC1`, the pIC50 [1] was 6.62, the pIC50 [2] was 7.09 and the pIC50 [3] was 6.55.
For `COc1cc2nccc(Oc3ccc(NC(=O)c4ncc(-c5ccc(F)cc5)o4)cc3)c2cc1OC`, the pIC50 [1] was under 4.00, the pIC50 [2] was 5.25 and the pIC50 [3] was 4.66.
For `CCC(C(=O)Nc1ccc(Oc2ccnc3cc(OCCCN4CCCCC4)c(OC)cc23)c(F)c1)c1nnc(-c2ccc(F)cc2)o1` (centres undefined), the pIC50 [4] was 6.39, the pIC50 [1] was 5.97 and the pIC50 [2] was 7.04. The pIC50 [3] was 5.83.
Work on `COc1cc2nccc(Oc3ccc(NC(=O)c4cc(-c5ccc(F)cc5)on4)cc3)c2cc1OC` yielded a pIC50 [1] of under 4.00, a pIC50 [2] of 4.39 and a pIC50 [3] of 4.53.
For `COc1cc2c(Oc3ccc(NC(=O)Cc4ncc(-c5ccc(F)cc5)o4)cc3F)ccnc2cc1OCCCN1CCCCC1`, the pIC50 [1] was 5.98, the pIC50 [2] was 5.98 and the pIC50 [3] was 6.28.
Work on `CCC(C(=O)Nc1ccc(Oc2ccnc3cc(OCCCN4CCOCC4)c(OC)cc23)c(F)c1)c1nnc(-c2ccc(F)cc2)o1` (centres undefined) yielded a pIC50 [4] of 5.57, a pIC50 [1] of 5.69 and a pIC50 [2] of 7.31. The pIC50 [3] was 5.60.
In the case of `COc1cc2c(Oc3ccc(NC(=O)Cc4nc(-c5ccc(F)cc5)no4)cc3F)ccnc2cc1OCCCN1CCC(C)CC1`, the pIC50 [1] was 5.94, the pIC50 [2] was 6.97 and the pIC50 [3] was 6.48.
With `COc1cc2c(Oc3ccc(NC(=O)C4(c5nnc(-c6ccc(F)cc6)o5)CC4)cc3F)ccnc2cc1OCCCN1CCCC1` the pIC50 [4] was 6.51, the pIC50 [1] was 6.11 and the pIC50 [2] was 6.82. It also gave a pIC50 [3] of 5.63.
Molecule `COc1cc2c(Oc3ccc(NC(=O)C(C)(C)c4nnc(-c5ccc(F)cc5)o4)cc3F)ccnc2cc1OCCCN1CCCC1` has a pIC50 [1] of 5.99, a pIC50 [2] of 6.58 and a pIC50 [3] of 5.98.
In the case of `COc1cc2c(Oc3ccc(NC(=O)C(C)(C)c4nnc(-c5ccc(F)cc5)o4)cc3F)ccnc2cc1OCCCN1CCN(C)CC1`, the pIC50 [4] was 5.61, the pIC50 [1] was 5.97 and the pIC50 [2] was 6.22. It also gave a pIC50 [3] of 5.72.
`COc1cc2c(Oc3ccc(NC(=O)Cc4ncc(-c5ccc(F)cc5)o4)cc3F)ccnc2cc1OCCCN1CCCC1` was tested, and the pIC50 [1] was 5.38, the pIC50 [2] was 6.75 and the pIC50 [3] was 6.47.
With `COc1cc2c(Oc3ccc(NC(=O)Cc4nnc(-c5ccc(F)cc5)o4)cc3F)ccnc2cc1OCCCN1CCOCC1` the pIC50 [1] was 5.37, the pIC50 [2] was 6.99 and the pIC50 [3] was 6.17.
With `COc1cc2c(Oc3ccc(NC(=O)Cc4ncc(-c5ccc(F)cc5)o4)cc3F)ccnc2cc1OCCCN1CCOCC1` the pIC50 [1] was 4.86, the pIC50 [2] was 6.22 and the pIC50 [3] was 5.62.
`COc1cc2c(Oc3ccc(NC(=O)Cc4ncc(-c5ccc(F)cc5)o4)cc3F)ccnc2cc1OCCCN1CCN(C)CC1` showed a pIC50 [1] of 5.60, a pIC50 [2] of 6.60 and a pIC50 [3] of 6.24.
Molecule `COc1cc2c(Oc3ccc(NC(=O)Cc4nnc(-c5ccc(F)cc5)o4)cc3F)ccnc2cc1OCCCN1CCCCC1` has a pIC50 [1] of 6.09, a pIC50 [2] of 6.09 and a pIC50 [3] of 6.40.
Molecule `COc1cc2c(Oc3ccc(NC(=O)Cc4nnc(-c5ccc(F)cc5)o4)cc3F)ccnc2cc1OCCCN1CCN(C)CC1` has a pIC50 [1] of 5.46, a pIC50 [2] of 7.15 and a pIC50 [3] of 6.39.
Work on `COc1cc2c(Oc3ccc(NC(=O)C4(c5nnc(-c6ccc(F)cc6)o5)CC4)cc3F)ccnc2cc1OCCCN1CCN(C)CC1` yielded a pIC50 [4] of 5.58, a pIC50 [1] of 5.98 and a pIC50 [2] of 6.84. For the same molecule, the pIC50 [3] was 5.78.
Molecule `CCC(C(=O)Nc1ccc(Oc2ccnc3cc(OCCCN4CCC(C)CC4)c(OC)cc23)c(F)c1)c1nnc(-c2ccc(F)cc2)o1` (centres undefined) has a pIC50 [4] of 6.34, a pIC50 [1] of 6.26 and a pIC50 [2] of 6.92. The pIC50 [3] was 6.40.
`COc1cc2c(Oc3ccc(NC(=O)Cc4nnc(-c5ccc(Br)cc5)o4)cc3F)ccnc2cc1OCCCN1CCC(C)CC1` showed a pIC50 [1] of 6.23, a pIC50 [2] of 6.99 and a pIC50 [3] of 6.17.
`COc1cc2c(Oc3ccc(NC(=O)C4(c5nnc(-c6ccc(F)cc6)o5)CC4)cc3F)ccnc2cc1OCCCN1CCC(C)CC1` was tested, and the pIC50 [4] was 6.13, the pIC50 [1] was 6.35 and the pIC50 [2] was 6.92. The pIC50 [3] was 5.66.
In the case of `COc1cc2c(Oc3ccc(NC(=O)c4ncc(-c5ccc(F)cc5)o4)cc3)ccnc2cc1OCCCN1CCC(C)CC1`, the pIC50 [1] was 5.72, the pIC50 [2] was 6.62 and the pIC50 [3] was 6.14.
With `COc1cc2c(Oc3ccc(NC(=O)Cc4ncc(-c5ccc(F)cc5)o4)cc3F)ccnc2cc1OCCCN1CCC(C)CC1` the pIC50 [1] was 6.96, the pIC50 [2] was 6.98 and the pIC50 [3] was 6.27.
With `COc1cc2c(Oc3ccc(NC(=O)C(C)c4nnc(-c5ccc(F)cc5)o4)cc3F)ccnc2cc1OCCCN1CCOCC1` (centres undefined) the pIC50 [4] was 5.98, the pIC50 [1] was 5.60 and the pIC50 [2] was 7.28. It also gave a pIC50 [3] of 5.93.
With `COc1cc2nccc(Oc3ccc(NC(=O)c4nc(-c5ccc(F)cc5)no4)cc3)c2cc1OC` the pIC50 [1] was 4.40, the pIC50 [2] was 4.99 and the pIC50 [3] was under 4.00.
`COc1ccc(-c2nnc(CC(=O)Nc3ccc(Oc4ccnc5cc(OCCCN6CCC(C)CC6)c(OC)cc45)c(F)c3)o2)cc1` was tested, and the pIC50 [1] was 5.12, the pIC50 [2] was 5.81 and the pIC50 [3] was 6.39.
Molecule `COc1cc2c(Oc3ccc(NC(=O)Cc4nnc(-c5ccc(F)cc5)o4)cc3F)ccnc2cc1OCCCN1CCCC1` has a pIC50 [1] of 5.63, a pIC50 [2] of 7.04 and a pIC50 [3] of 6.68.
With `COc1cc2c(Oc3ccc(NC(=O)C(C)c4nnc(-c5ccc(F)cc5)o4)cc3F)ccnc2cc1OCCCN1CCCCC1` (centres undefined) the pIC50 [4] was 5.98, the pIC50 [1] was 6.00 and the pIC50 [2] was 7.07. The pIC50 [3] was 5.90.
Work on `COc1cc2c(Oc3ccc(NC(=O)C(C)(C)c4nnc(-c5ccc(F)cc5)o4)cc3F)ccnc2cc1OCCCN1CCCCC1` yielded a pIC50 [4] of 6.33, a pIC50 [1] of 6.06 and a pIC50 [2] of 6.67. For the same molecule, the pIC50 [3] was 5.75.
